Data taken from PubChem BioAssay AID2060511 (Molecular Pharmacology Branch, DTP, NCI, 2025).
pIC50: −log10 of the molar value.

System: 422866-222-R5-J1-PDC spheroids with HUVEC/MSC, viability
Experiment: Anticancer human tumor 422866-222-R5-J1-PDC patient-derived pancreatic adenocarcinoma cell line growth inhibition [GQUAD]
Conditions: for pIC50: curve of first compound; for viability, T/C: stronger effect = lower value
Description: DNA G-quadruplex Stabilizer Agents in Combinations in Complex Spheroids
A high-throughput screen of multi-cell type tumor spheroids was designed to identify active combinations of DNA G-quadruplex stabilizer agents and targeted small molecules. Complex spheroids include a stromal component modeled by human endothelial cells (HUVEC) and fibroblasts modeled by human mesenchymal stem cells (MSCs). The concentration ranges selected for each drug and investigational agent were based upon clinically achievable concentrations if the clinical Cmax of the agent was known.
Compounds. The drugs and investigational agents: pidnarulex (CX-5461; NSC782164), APTO-253 (NSC789042), BRACO-19 (NSC847499), peposertib (NSC802822), ceralasertib (NSC780249), elimusertib (NSC800525), camonsertib (NSC841442), AZD-1390 (NSC803789), olaparib (NSC753686), talazoparib (NSC767125), ART-558 (NSC835418), sotorasib (NSC818433), MRTX-1133 (NSC836407), SN-38 (NSC673596), topotecan (NSC609699), etoposide (NSC141540), doxorubicin (NSC123127), gemcitabine (NSC613327), 5-fluorouracil (NSC19893), paclitaxel (NSC125973), vemurafenib (NSC761431), panobinostat (NSC761190), R-306465 (JNJ-16241199; NSC773264), adavosertib (NSC754352), TP-3654 (NSC805149), carboplatin (NSC241240), KSQ-4279 (NSC840948), and staurosporine (NSC755774) were obtained from the National Cancer Institute (NCI) Developmental Therapeutics Program Chemical Repository (34). The FDA-approved anticancer drug set is available from the NCI Developmental Therapeutics Program. […] The stock solutions were prepared in dimethyl sulfoxide (DMSO, Sigma-Aldrich, St. Louis, MO, cat. D2650) at 800-fold the tested concentration and stored at -70 degrees C prior to their use. All drugs and investigational agents were tested over a range starting from a high concentration at or near the clinical Cmax and decreasing in half-log increments. If the clinical Cmax for an agent had not been determined, the highest concentration tested was 10 microM.
2.3 Cell Culture. All cells were maintained in an incubator at 37 degrees C and 5% CO2 with 95% humidity. The PDC lines were cultured according to standard operating procedures established by the NCI PDMR. All PDCs were thawed and cultured in Matrigel-coated flasks prepared with a working solution of 1X Ham's F-12 nutrient mix, without supplementation (Invitrogen, cat. 11765054), 100 U/mL penicillin-streptomycin (Invitrogen, cat. 15140122), and 2.5% Matrigel (Corning Inc., cat. 354248) for the first three passages. The 857933-349-R-J2-PDC line was cultured in 6C/Colon 1B media, which includes advanced DMEM/F-12 (Thermo Fisher Scientific, cat. 12634028), 10 mM HEPES (Thermo Fisher Scientific, cat. 15630080), 1X GlutaMAX supplement (Thermo Fisher Scientific, cat. 35050061), 0.1 mg/mL primocin (InvivoGen, cat. ant-pm-2), 10% defined fetal bovine serum, heat inactivated (HyClone Laboratories Inc., cat. SH30070.03HI), 50% L-WRN conditioned media (ATCC, cat. CRL-3276), 1.25 mM N-Acetyl-L-cysteine (Sigma-Aldrich, cat. A9165), 10 mM nicotinamide (Sigma-Aldrich, cat. N0636), 1X B-27 supplement (Thermo Fisher Scientific, cat. 17504044), 1X N-2 supplement (Thermo Fisher Scientific, cat. 17502048), 10 microM Y-27632 dihydrochloride (Tocris Bioscience, cat. 1254), and 50 ng/mL human EGF recombinant protein (Thermo Fisher Scientific, cat. PHG0311). The 485176-168-R4-J1-PDC line was cultured in Panc media, which includes all 6C/Colon 1B media components plus 100 ng/mL human FGF-10 (Thermo Fisher Scientific, cat. 100-26), 500 nM SB-431542 (Selleckchem, cat. S1067), and gastrin (Tocris, cat. 3006).
[…]

[1] = second compound 0.0316 µM, first compound 0.0316 µM
[2] = second compound 0.0316 µM, first compound 0.1 µM
[3] = second compound 0.0316 µM, first compound 0.316 µM
[4] = second compound 0.0316 µM, first compound 1 µM
[5] = second compound 0.0316 µM, first compound 3.16 µM
[6] = second compound 0.0316 µM, first compound 10 µM
[7] = second compound 0.1 µM, first compound 0.0316 µM
[8] = second compound 0.1 µM, first compound 0.1 µM
[9] = second compound 0.1 µM, first compound 0.316 µM
[10] = second compound 0.1 µM, first compound 1 µM
[11] = second compound 0.1 µM, first compound 3.16 µM
[12] = second compound 0.1 µM, first compound 10 µM
[13] = second compound 0.316 µM, first compound 0.0316 µM
[14] = second compound 0.316 µM, first compound 0.1 µM
[15] = second compound 0.316 µM, first compound 0.316 µM
[16] = second compound 0.316 µM, first compound 1 µM
[17] = second compound 0.316 µM, first compound 3.16 µM
[18] = second compound 0.316 µM, first compound 10 µM
[19] = second compound 1 µM, first compound 0.0316 µM
[20] = second compound 1 µM, first compound 0.1 µM
[21] = second compound 1 µM, first compound 0.316 µM
[22] = second compound 1 µM, first compound 1 µM
[23] = second compound 1 µM, first compound 3.16 µM
[24] = second compound 1 µM, first compound 10 µM
[25] = second compound 3.16 µM, first compound 0.0316 µM
[26] = second compound 3.16 µM, first compound 0.1 µM
[27] = second compound 3.16 µM, first compound 0.316 µM
[28] = second compound 3.16 µM, first compound 1 µM
[29] = second compound 3.16 µM, first compound 3.16 µM
[30] = second compound 3.16 µM, first compound 10 µM
[31] = second compound 10 µM, first compound 0.0316 µM
[32] = second compound 10 µM, first compound 0.1 µM
[33] = second compound 10 µM, first compound 0.316 µM
[34] = second compound 10 µM, first compound 1 µM
[35] = second compound 10 µM, first compound 3.16 µM
[36] = second compound 10 µM, first compound 10 µM
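Also: spheroids exposed to compounds for seven days before reading.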
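For viability, T/C in this document: percent viability relative to DMSO vehicle control taken as 100%.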

CC(C)n1c(=O)n(C)c2cnc3cc(F)c(-c4ccc(OCCCN5CCCCC5)nc4)cc3c21 + CN(C)c1ccc(Nc2c3ccc(NC(=O)CCN4CCCC4)cc3nc3cc(NC(=O)CCN4CCCC4)ccc23)cc1
pIC50 (second compound 0.0316 µM): < 5.00
pIC50 (second compound 0.1 µM): < 5.00
pIC50 (second compound 0.316 µM): < 5.00
pIC50 (second compound 1 µM): < 5.00
pIC50 (second compound 3.16 µM): < 5.00
pIC50 (second compound 10 µM): < 5.00
viability, T/C [1]: 99.8%
viability, T/C [2]: 99%
viability, T/C [3]: 93.5%
viability, T/C [4]: 96%
viability, T/C [5]: 103%
viability, T/C [6]: 67.1%
viability, T/C [7]: 100%
viability, T/C [8]: 78.5%
viability, T/C [9]: 101%
viability, T/C [10]: 90.5%
viability, T/C [11]: 90.7%
viability, T/C [12]: 70%
viability, T/C [13]: 103%
viability, T/C [14]: 95.4%
viability, T/C [15]: 92.4%
viability, T/C [16]: 81.2%
viability, T/C [17]: 88.8%
viability, T/C [18]: 70.2%
viability, T/C [19]: 87.2%
viability, T/C [20]: 92.5%
viability, T/C [21]: 87.9%
viability, T/C [22]: 98.6%
viability, T/C [23]: 83.8%
viability, T/C [24]: 55.1%
viability, T/C [25]: 82.8%
viability, T/C [26]: 80.1%
viability, T/C [27]: 86.8%
viability, T/C [28]: 88.9%
viability, T/C [29]: 81.6%
viability, T/C [30]: 61.6%
viability, T/C [31]: 73.8%
viability, T/C [32]: 80.9%
viability, T/C [33]: 80.4%
viability, T/C [34]: 64.3%
viability, T/C [35]: 68.5%
viability, T/C [36]: 51.7%

CC1COCCN1c1cc(-c2ccnn2C)c2ccnc(-c3ccn[nH]3)c2n1 (stereo not drawn) + CN(C)c1ccc(Nc2c3ccc(NC(=O)CCN4CCCC4)cc3nc3cc(NC(=O)CCN4CCCC4)ccc23)cc1
pIC50 (second compound 0.0316 µM): < 5.00
pIC50 (second compound 0.1 µM): < 5.00
pIC50 (second compound 0.316 µM): < 5.00
pIC50 (second compound 1 µM): 7.50
pIC50 (second compound 3.16 µM): 7.50
pIC50 (second compound 10 µM): 7.50
viability, T/C [1]: 88.7%
viability, T/C [2]: 60.3%
viability, T/C [3]: 53.2%
viability, T/C [4]: 46.5%
viability, T/C [5]: 73.2%
viability, T/C [6]: 92.6%
viability, T/C [7]: 92.4%
viability, T/C [8]: 62.7%
viability, T/C [9]: 46.2%
viability, T/C [10]: 36.2%
viability, T/C [11]: 86.8%
viability, T/C [12]: 84.2%
viability, T/C [13]: 86.8%
viability, T/C [14]: 70.2%
viability, T/C [15]: 46.7%
viability, T/C [16]: 39.4%
viability, T/C [17]: 86.9%
viability, T/C [18]: 89.3%
viability, T/C [19]: 73%
viability, T/C [20]: 52%
viability, T/C [21]: 37.2%
viability, T/C [22]: 39.2%
viability, T/C [23]: 91.2%
viability, T/C [24]: 71.5%
viability, T/C [25]: 79%
viability, T/C [26]: 54.8%
viability, T/C [27]: 38%
viability, T/C [28]: 39.7%
viability, T/C [29]: 81.2%
viability, T/C [30]: 94.6%
viability, T/C [31]: 76.8%
viability, T/C [32]: 52.7%
viability, T/C [33]: 40.2%
viability, T/C [34]: 41.4%
viability, T/C [35]: 83.9%
viability, T/C [36]: 83.8%

CC1COCCN1c1cc(C2(S(C)(=N)=O)CC2)nc(-c2ccnc3[nH]ccc23)n1 (stereo not drawn) + CN(C)c1ccc(Nc2c3ccc(NC(=O)CCN4CCCC4)cc3nc3cc(NC(=O)CCN4CCCC4)ccc23)cc1
pIC50 (second compound 0.0316 µM): 5.45
pIC50 (second compound 0.1 µM): 5.59
pIC50 (second compound 0.316 µM): 5.11
pIC50 (second compound 1 µM): 5.42
pIC50 (second compound 3.16 µM): 5.45
pIC50 (second compound 10 µM): 5.22
viability, T/C [1]: 97.6%
viability, T/C [2]: 99.8%
viability, T/C [3]: 97.3%
viability, T/C [4]: 88.5%
viability, T/C [5]: 51%
viability, T/C [6]: 41.1%
viability, T/C [7]: 102%
viability, T/C [8]: 98.3%
viability, T/C [9]: 102%
viability, T/C [10]: 78.9%
viability, T/C [11]: 44.6%
viability, T/C [12]: 37.9%
viability, T/C [13]: 92.2%
viability, T/C [14]: 86.2%
viability, T/C [15]: 88.4%
viability, T/C [16]: 81%
viability, T/C [17]: 60.3%
viability, T/C [18]: 47.1%
viability, T/C [19]: 73.7%
viability, T/C [20]: 76.6%
viability, T/C [21]: 100%
viability, T/C [22]: 72.7%
viability, T/C [23]: 54.2%
viability, T/C [24]: 31.9%
viability, T/C [25]: 84.5%
viability, T/C [26]: 76.5%
viability, T/C [27]: 86%
viability, T/C [28]: 72%
viability, T/C [29]: 51.4%
viability, T/C [30]: 43.5%
viability, T/C [31]: 79.5%
viability, T/C [32]: 77%
viability, T/C [33]: 93%
viability, T/C [34]: 73.6%
viability, T/C [35]: 61.9%
viability, T/C [36]: 41.2%

O=C(c1cc(Cc2n[nH]c(=O)c3ccccc23)ccc1F)N1CCN(C(=O)C2CC2)CC1 + CN(C)c1ccc(Nc2c3ccc(NC(=O)CCN4CCCC4)cc3nc3cc(NC(=O)CCN4CCCC4)ccc23)cc1
pIC50 (second compound 0.0316 µM): < 5.00
pIC50 (second compound 0.1 µM): < 5.00
pIC50 (second compound 0.316 µM): < 5.00
pIC50 (second compound 1 µM): < 5.00
pIC50 (second compound 3.16 µM): < 5.00
pIC50 (second compound 10 µM): < 5.00
viability, T/C [1]: 108%
viability, T/C [2]: 95.8%
viability, T/C [3]: 96.3%
viability, T/C [4]: 99.7%
viability, T/C [5]: 75.7%
viability, T/C [6]: 70.1%
viability, T/C [7]: 90.3%
viability, T/C [8]: 95.3%
viability, T/C [9]: 84.9%
viability, T/C [10]: 83%
viability, T/C [11]: 93.2%
viability, T/C [12]: 67.5%
viability, T/C [13]: 86.4%
viability, T/C [14]: 107%
viability, T/C [15]: 79.7%
viability, T/C [16]: 83.3%
viability, T/C [17]: 79.8%
viability, T/C [18]: 70.4%
viability, T/C [19]: 80%
viability, T/C [20]: 79.3%
viability, T/C [21]: 78.3%
viability, T/C [22]: 77.4%
viability, T/C [23]: 74.5%
viability, T/C [24]: 67.5%
viability, T/C [25]: 87%
viability, T/C [26]: 92.3%
viability, T/C [27]: 86.5%
viability, T/C [28]: 85.7%
viability, T/C [29]: 85%
viability, T/C [30]: 80.6%
viability, T/C [31]: 81.8%
viability, T/C [32]: 83.6%
viability, T/C [33]: 87.4%
viability, T/C [34]: 79.5%
viability, T/C [35]: 83.6%
viability, T/C [36]: 79.9%
